Test results published in PMC6235670, “An mTOR Signaling Modulator Suppressed Heterotopic Ossification of Fibrodysplasia Ossificans Progressiva” (Stem Cell Reports, 2018).

What was measured:
[1] = system: ERBB2; conditions: panel of 300 recombinant protein kinases; ref Anastassiadis et al., 2011; cited from earlier work
[2] = system: resFOP-iMSCs
Excerpt: (§1) Generation of ATDC5 stably expressing ACVR1. WT - or FOP-ACVR1 was inserted into doxycycline (Dox)- inducible vector KW111 (Woltjen et al., 2009), which enables us to easily produce stably expressing cell lines utilizing the piggyBac (PB) transposon system from the cabbage looper moth Trichoplusia ni (Ding et al., 2005) (KW111/WT-ACVR1 or KW111/FOP-ACVR1). KW111/WT-ACVR1 or KW111/FOP-ACVR1 and PBaseII plasmid (PB transposase expression vector) ( Matsui et al., 2014 ) were co-transfected into ATDC5 cells by FuGeneHD® (Promega) according to the manufacturer’s protocol, and the neomycin- resistant population (500 µg/mL) was selected. Further selection was performed by selecting a mCherry high positive population (< 5%) after six hours of Dox treatment, sorting it with fluorescent-activated cell sorting (FACS) using AriaII (BD) according to the manufacturer’s protocol, and designating it as ATDC5/WT-ACVR1 or ATDC5/FOP-ACVR1. […]
(§2) HTS campaign and follow-up screens. […] After 3 days incubation, Alkaline Phosphatase activity (ALP) or AlamarBlue activity was measured using Amplite™ Colorimetric Alkaline Phosphatase Assay Kit (AAT Bioquest) or alamarBlue® Cell Viability Reagent (Thermo Fisher Scientific) according to the manufacturer’s protocol, respectively. T h e absorbance at 400 nm (Abs for ALP) or Relative Fluorescent Unit of Ex560/Em590 nm (RFU for AlamarBlue) was measured on POWERSCAN4 (DS Pharma Biomedical) or EnVision® Multilabel Reader (PerkinElmer).
(§3) Inhibitory effects of the screened compounds are given as percent inhibition, which was calculated using the following equation: (1-([Abs of compound] - [Abs of Min])/([Abs of Max] - [Abs of Min]))× 100, where [Abs of Max] and [Abs of Min] are the mean Abs of DMSO control and 1 µM DMH-1, respectively. The Z’ factor, which is widely used as a measure of the assay quality of each plate, was calculated using the following equation: Z’ factor = 1 - 3 × ([SD of Max] + [SD of Min])/([Abs of Max] - [Abs of Min]) (SI Appendix, Fig. […]

[3] = system: FOP-iMSCs; conditions: TGF-β3 10 ng/mL, 7 days, 1 nM-1 µM
Excerpt: as §1, §2, §3

[4] = system: BMP-7-induced HO model mice (C57BL/6); assay: BMP-7-induced HO model mice
Excerpt: (§4) MTOR s604 […]tt […]at […]
(§5) For X- ray images, mice were anesthetized with isoflurane (5% for induction, 2-3% for maintenance, Abbvie), immobilized and X-rayed using µFX-1000 (Fujifilm) or DX-50 (Faxitron Bioptics). µCT images were scanned using X-ray CT systems (inspeXio SMX-100CT, Shimadzu) and analyzed with TRI/3D-BON software (Ratoc System Engineering) according to the manufacturer's instructions. Four weeks after injection, the injected sites were harvested, fixed with 4% paraformaldehyde for 24 h, embedded in paraffin, and sectioned and stained […]
BMP-7-induced HO model mice. BMP -7 (2 µ g/mouse) was injected into the right gastrocnemius muscle of C57BL/6NJcl mice (6-8 weeks, male, CLEA Japan), and compounds were administered once a day, five times a week (intraperitoneal administration). Mice were analyzed 2 weeks after injection. […]

[5] = system: NOD/SCID mice transplanted with FOP-iMSCs
Excerpt: as §4
as §5, with “instructions.” for “instructions. Four weeks after injection, the injected sites were harvested, fixed with 4% paraformaldehyde for 24 h, embedded in paraffin, and sectioned and stained”
Activin-A-induced HO model transplanted with FOP-iMSCs. FOP- (right leg) and resFOP-iMSCs (left leg) (4 x 10^6 cells, respectively) were transplanted into the gastrocnemius muscle of NOD/ShiJic-scid Jcl (NOD/SCID) mice (8 weeks, male, CLEA Japan) with C3H -DoxOn-hINHBA (5 x 10^5 cells), which can continuously expose Activin-A to the transplanted iMSCs in vivo ( Hino et al., 2015) . In the Dox-induced group, 1 mg/mL Dox (Sigma-Aldrich) was administered via drinking water with 10 mg/mL sucrose (Nacalai Tesque) for two weeks after transplantation. Compounds were intraperitoneally administered once a day, five times a week. Eight weeks after transplantation, the transplanted cells were harvested , fixed with 4% paraformaldehyde for 24 h, embedded in paraffin, and sectioned and stained with HE, von Kossa, Safranin O, human specific anti-Vimentin antibody and Collagen I antibody as previously described (Hino et al., 2015; Umeda et al., 2012; […]

FC(F)(F)c1ccc(/C=C/c2nc(COc3ccc(CCCCn4ccnn4)cc3)co2)cc1 [TAK 165, mubritinib]
selectivity for ERBB2 [1]: highly selective
chondrogenesis of resFOP-iMSCs stimulated with Activin-A (GAG) ([2]; Activin-A 100 ng/mL, 7 days, 1 nM-1 µM): suppressed
effect on FOP cells versus normal cells ([2]; FOP-iMSCs vs resFOP-iMSCs): stronger effects on FOP cells than on normal cells
chondrogenesis of FOP-iMSCs stimulated with TGF-β3 (GAG) [3]: suppressed
body weight change compared to vehicle group ([4]; i.p. for 2 weeks, n=5): No significant differences
BMP-7-induced HO (heterotopic bone volume) ([4]; i.p. once daily 5 times a week for 2 weeks): suppressed
# of HO (> 20 mm3): number of mice harboring HO ([4]; i.p. once daily 5 times a week for 2 weeks, N = 5): 1/5
anti-human-specific vimentin-positive cells (survival of transplanted cells) ([5]; 5 mg/kg i.p.): large number
body weight change compared with vehicle group ([5]; 5 mg/kg i.p.): No significant differences
hypertrophic chondrocytes and von Kossa- and COL1-positive bone regions ([5]; 5 mg/kg i.p.): fewer
HO derived from FOP-iMSCs (heterotopic bone volume) ([5]; 5 mg/kg i.p. once daily, five times a week, 8 weeks after transplantation): significantly suppressed
